Assay results from patent EP1388013B1, “COMPOSITIONS AND METHODS FOR THE USE OF FIBRONECTIN FRAGMENTS IN THE DIAGNOSIS OF CANCER” (THE REGENTS OF THE UNIVERSITY OF MICHIGAN, priority 2001, dated 2002).
No end group written: not given here.

What was measured:
[1] = system: neonatal fibroblasts; experiment: SU-ECM invasion assay, neonatal fibroblasts; type: cell-based, human
Source text: In one example cells for the invasion assay are harvested by rinsing in Hanks' balanced salt solution, followed by brief treatment with 0.25% trypsin, 0.02% EDTA, and pelleting and resuspension in the appropriate medium with or without 5% FCS at a density of about 50,000 cells per ml. When appropriate, purified bovine plasma fibronectin (from Sigma, St. Louis, Mo), purified 120 kDa chymotryptic fragment (Gibco BRL) or PHSRN peptides (synthesized at the Biomedical Research Core Facilities of the University of Michigan) are added to the resuspended cells prior to placement of the cells on SU-ECM. In each well of a plate used for an invasion assay, SU-ECM were placed in 0.5 ml of the appropriate medium, and 0.5ml of the resuspended cells dropped on their exterior surfaces. Invasion assays were incubated 1 to 16 hours prior to assay. If some circumstances, invasion assays were fixed in phosphate-buffered saline (PBS) with 2% formaldehyde for 5 minutes at room temperature, then rinsed into PBS.
(§1) Invasion assays are coded and scored blindly by microscopic examination under phase contrast at 200- and 400-fold magnification. Each cell contacting an SU-ECM is scored for its position relative to the exterior or interior surfaces. A cell is judged to have invaded if it is located on an interior surface below the focal plane passing through the upper surface of the SU-ECM, but above the focal plane passing through its lower surface. The minimum viability of the cells in each assay is always ascertained at the time of assay by determining the fraction of spread, adherent cells on the bottom of each well scored.
(§2) An invasion frequency is defined as the fraction of cells in contact with basement membranes which are located in their interiors at the time of assay. Thus, an invasion frequency of 1 denotes invasion by 100% of the cells in contact with basement membranes. Invasion frequencies are determined multiple times for each cell type assayed. For each type of cell assayed the mean and standard deviation of the invasion frequencies were calculated.
In this example, the invasiveness of neonatal fibroblasts into an SU-ECM invasion substrate is considered. Experiments were performed under serum-free conditions, or in medium with 10% fetal calf serum (FCS). Neither serum-free medium nor medium containing serum supported fibroblast invasion. However, consistent with the induction of metalloproteinase gene transcription by the 120 kDa fragment of plasma fibronectin (pFn) containing the cell-binding domain, the 120 kDa fragment induced fibroblast invasion in the presence or in the absence of serum. […]

[2] = system: metastatic SUM-52 PE breast cancer cells; experiment: SU-ECM invasion assay, SUM-52 PE cells; type: cell-based, human; conditions: PHSRN sequence of fibronectin alone; Example 4
Description: Adult Strongylocentrotus purpuratus sea urchins were obtained from Pacific BioMarine, and their embryos were cultured to the early pluteus stage in artificial sea water at 15°C. SU-ECM were prepared from them by treatment with nonionic detergent and sterilized by dilution in the appropriate media.
Cells were harvested by rinsing in Hanks balanced salt solution, followed by brief treatment with 0.25% trypsin, 0.02% EDTA, and pelleting and resuspension in the appropriate medium with or without 5% FCS at a density of about 50,000 cells per ml. When appropriate, purified bovine plasma fibronectin (Sigma, St. Louis, Mo), purified 120 kDa chymotryptic fragment (Gibco BRL), PHSRN or PHSCN peptides (synthesized at the Biomedical Research Core Facilities of the University of Michigan), or GRGDSP or GRGESP peptides (Gibco BRL) were added to the resuspended cells prior to placement of the cells on SU-ECM. In each well of a plate used for an invasion assay, SU-ECM were placed in 0.5 ml of the appropriate medium, and 0.5ml of the resuspended cells dropped on their exterior surfaces. Invasion assays were incubated 1 to 16 hours prior to scoring. If some circumstances, invasion assays were fixed in phosphate-buffered saline (PBS) with 2% formaldehyde for 5 minutes at room temperature, then rinsed into PBS.
as §1, with “were” for “are”, “was” for “is”
as §2, with “were” for “are”
The method of Example 4 is employed, with the addition of varying concentrations of the PHSCN peptide.
Thus, the procedure in Example 4 provides a method for determining the inhibitory potential of the PHSCN peptide by comparing the number of cell invasions in the presence of the PHSCN peptide, with the number of cell invasions in the absence of the PHSCN peptide.

## PHSRN [PHSRN]
[1]; 10 to 3000 ng per ml, presence or absence of serum, log-linear, Figure 10
  induction of fibroblast invasion of SU-ECM, dose response: able to induce fibroblast invasion
[1]; in the presence (10% FCS) or absence of serum, molar concentration equivalent to plasma fibronectin in serum, Figure 9
  induction of fibroblast invasion of SU-ECM: contained all the invasion-stimulatory activity
[1]; serum-free SU-ECM
  induction of fibroblast invasion of SU-ECM: induced
[2]
  induction of SUM-52 cell invasion of SU-ECM: induced to invade
